In the SangsterLogP compilation one finds logP data, which are given here for ten compounds.

One may read the logP as a log measure of how a compound divides between an organic and an aqueous phase.

In turn, `Cn1c2c(c3ccccc31)C[C@@]1(O)[C@@H]3Cc4ccc(O)c5c4[C@@]1(CCN3CC1CC1)[C@H]2O5` showed a logP of 4.28. For `CCC(C)NC(=O)c1cc2ccccc2c(-c2ccccc2Cl)n1` (stereo not given), the lipophilicity (logP) is 3.25. Then `COC(=O)C1C(c2ccc(I)cc2)CC2CCC1N2C` (stereo not given), with 2.13; and `CCCn1c(=O)c2[nH]c(C3CCCC3)nc2n(CCCF)c1=O`, with 2.83; and `CN1Cc2c(C(=O)OCCF)ncn2-c2ccc(F)cc2C1=O`, with 0.93. Then `COc1cc2c(cc1OC)CN(CCc1ccc(NC(=O)c3cccc4c(=O)c5cccc(OC)c5[nH]c34)cc1)CC2`, with 4.82. Then `CCN1CCCC1CNC(=O)c1cc(Br)cc(OC)c1OC` (stereo in doubt), with 2.37; and `Oc1ccccc1OC(c1ccccc1)C1CNCCO1` (stereo not given), with 1.92; and `CCN1CCC[C@H]1CNC(=O)c1cc(I)cc(OC)c1OC`, with 2.73. In the case of `CNCC(O)CCN1c2ccccc2N(c2ccccc2)S1(=O)=O` (stereo not given), the logP was 2.55.
